Data set [1] is described as follows: Apparent dissociation constant of compound was evaluated. The class given is ADME.
Data set [2] deals with T1, Acetylcholinesterase (Homo sapiens, UniProt P22303).
Description: Inhibitory concentration of compound against acetylcholinesterase from human erythrocytes at pH=7.5
The next data set concerns the target Cholinesterase (Homo sapiens, UniProt P06276).
Data set [3] has as its target T1, Acetylcholinesterase. The source holds these as a separate data set.
Description: Inhibitory concentration of compound against acetylcholinesterase from human erythrocytes at pH=7.0
The target of data set [4] is T1, Acetylcholinesterase. This is another data set of the same source.
Description: Inhibitory concentration of compound against acetylcholinesterase from human erythrocytes at pH=8.0
In data set [5] the target is T1, Acetylcholinesterase. The source holds these as a separate data set.
Description: Inhibitory concentration against acetylcholinesterase from human erythrocytes
Data set [6] addresses T2, Muscarinic acetylcholine receptor M2 (Homo sapiens) (UniProt P08172).
T2 sequence (whole entry): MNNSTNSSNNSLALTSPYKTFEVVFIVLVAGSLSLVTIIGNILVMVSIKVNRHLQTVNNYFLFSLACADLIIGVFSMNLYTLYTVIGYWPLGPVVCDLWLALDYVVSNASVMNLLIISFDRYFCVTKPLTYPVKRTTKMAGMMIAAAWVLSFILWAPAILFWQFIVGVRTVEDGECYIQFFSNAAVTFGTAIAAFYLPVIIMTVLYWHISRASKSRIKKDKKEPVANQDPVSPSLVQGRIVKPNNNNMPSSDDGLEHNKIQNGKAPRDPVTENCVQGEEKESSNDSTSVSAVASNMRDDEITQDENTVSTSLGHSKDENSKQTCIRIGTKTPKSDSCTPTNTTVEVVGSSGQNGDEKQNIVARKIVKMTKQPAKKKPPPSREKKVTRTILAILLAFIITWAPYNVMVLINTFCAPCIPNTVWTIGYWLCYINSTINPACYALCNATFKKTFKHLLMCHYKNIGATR
In words: Antagonistic potency of compound towards Muscarinic acetylcholine receptor M2 in guinea pig left atrium. The class given is functional, tissue-based. The conditions noted are these: Cavia porcellus; Cardiac atrium; target entry is the homologue from another species.

Data set [7] deals with T1, Acetylcholinesterase. The source holds these as a separate data set.
Description: Inhibitory activity of compound against acetylcholinesterase from human erythrocytes

T1 sequence (P22303 whole entry): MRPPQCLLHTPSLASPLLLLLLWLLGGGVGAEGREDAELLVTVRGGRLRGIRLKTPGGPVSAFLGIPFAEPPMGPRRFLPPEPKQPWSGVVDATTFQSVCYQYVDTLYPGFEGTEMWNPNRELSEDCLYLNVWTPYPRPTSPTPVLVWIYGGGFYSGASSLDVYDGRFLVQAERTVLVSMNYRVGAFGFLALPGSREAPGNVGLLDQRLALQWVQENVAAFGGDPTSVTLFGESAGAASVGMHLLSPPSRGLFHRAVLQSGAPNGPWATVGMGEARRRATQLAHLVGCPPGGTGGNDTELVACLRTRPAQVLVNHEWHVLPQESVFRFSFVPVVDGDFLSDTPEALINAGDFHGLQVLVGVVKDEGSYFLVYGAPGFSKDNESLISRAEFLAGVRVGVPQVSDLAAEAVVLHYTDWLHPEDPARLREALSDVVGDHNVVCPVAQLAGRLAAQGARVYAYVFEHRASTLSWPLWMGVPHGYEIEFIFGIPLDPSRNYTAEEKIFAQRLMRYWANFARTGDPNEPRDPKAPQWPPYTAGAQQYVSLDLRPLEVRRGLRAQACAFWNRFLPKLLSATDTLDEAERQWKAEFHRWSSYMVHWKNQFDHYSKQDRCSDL
Sequence of Cholinesterase (P06276 whole entry): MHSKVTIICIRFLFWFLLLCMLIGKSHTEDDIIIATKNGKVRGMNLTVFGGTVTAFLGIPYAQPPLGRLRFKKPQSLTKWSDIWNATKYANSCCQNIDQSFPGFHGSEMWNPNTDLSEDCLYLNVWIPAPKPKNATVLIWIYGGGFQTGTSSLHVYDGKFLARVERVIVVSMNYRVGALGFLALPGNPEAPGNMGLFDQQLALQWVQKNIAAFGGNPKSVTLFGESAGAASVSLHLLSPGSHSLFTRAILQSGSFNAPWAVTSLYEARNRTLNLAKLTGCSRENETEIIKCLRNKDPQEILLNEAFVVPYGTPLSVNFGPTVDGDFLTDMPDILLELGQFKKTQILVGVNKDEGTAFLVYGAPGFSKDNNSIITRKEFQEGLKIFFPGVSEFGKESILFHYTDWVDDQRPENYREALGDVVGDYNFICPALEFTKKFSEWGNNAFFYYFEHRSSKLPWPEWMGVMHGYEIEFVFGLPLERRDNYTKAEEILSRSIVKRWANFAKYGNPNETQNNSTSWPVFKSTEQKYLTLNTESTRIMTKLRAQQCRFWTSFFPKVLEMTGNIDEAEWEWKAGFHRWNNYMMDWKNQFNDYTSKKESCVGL
Description for Cavia porcellus: Ability to reverse the D-tubocurarine-induced neuromuscular blockade in guinea pig left atrium

The pKa is the pH at which an ionisable group is half protonated. For orientation: IC50 means the point on the concentration scale where inhibition reaches its midpoint. The low end stands for higher potency, the high end for lower potency. With `CCN(CCCCCC(=O)N(C)CCCCCCCCN(C)C(=O)CCCCCN(CC)Cc1ccccc1[N+](=O)[O-])Cc1ccccc1[N+](=O)[O-]`, the pKa in [1] came to 6.26. The IC50 is 79.4 nM at Acetylcholinesterase [2]; 55000 nM at Cholinesterase; 32.4 nM against Acetylcholinesterase [3]; 794 nM against Acetylcholinesterase [4]; 794 nM against Acetylcholinesterase [5]. This compound displayed a pAI50 in the data set listed under Cavia porcellus of 5.93.

With `CCCOc1ccccc1C[N+](C)(CC)CCCCCC(=O)N(C)CCCCCCCCN(C)C(=O)CCCCC[N+](C)(CC)Cc1ccccc1OCCC` (configuration not stated), the values for the IC50 against Cholinesterase and on Acetylcholinesterase [5] were 83.2 nM and 17.4 nM, respectively.

For `CC[N+](C)(CCCCCC(=O)N(C)CCCCCCCCN(C)C(=O)CCCCC[N+](C)(CC)Cc1ccccc1[N+](=O)[O-])Cc1ccccc1[N+](=O)[O-]` (configuration not stated), the IC50 on Acetylcholinesterase [2] was 12.9 nM; against Cholinesterase, 2400 nM; against Acetylcholinesterase [3] it was 12.6 nM; against Acetylcholinesterase [4], 12.3 nM; on Acetylcholinesterase [5], 12.3 nM.

Take `CC[N+](C)(CCCCCC(=O)N(C)CCCCCCCCN(C)C(=O)CCCCC[N+](C)(CC)Cc1ccccc1Cl)Cc1ccccc1Cl` (configuration not stated): the IC50 is 2570 nM against Cholinesterase and 19.5 nM against Acetylcholinesterase [5].

Regarding `CCN(CCCCCC(=O)N(C)CCCCCCCCN(C)C(=O)CCCCCN(CC)Cc1ccccc1)Cc1ccccc1`, the pKa in data set [1] turned out to be 7.42. Further, the IC50 on Cholinesterase was 1070 nM; against Acetylcholinesterase [5], 49 nM. Also, the pAI50 in the data set filed under Cavia porcellus stood at 6.32.

By pKb is commonly meant the Kb on a negative log10 scale, so that one unit is a factor of ten. Read a high pKb as a low Kb. In general, Ki refers to the equilibrium dissociation constant of an inhibitor or competing ligand from its target. The low end stands for higher affinity, the high end for lower affinity. As to `COc1ccccc1CN(C)CCCCCC(=O)N(C)CCCCCCCCN(C)C(=O)CCCCCN(C)Cc1ccccc1OC` [CAPROCTAMINE], the pKb in data set [6] was 6.39. In addition, at Acetylcholinesterase [7], the affinity corresponds to a Ki of 104 nM. In the data set listed under Cavia porcellus, this compound showed a pAI50 of 5.79.

`CCCOc1ccccc1CN(CC)CCCCCC(=O)N(C)CCCCCCCCN(C)C(=O)CCCCCN(CC)Cc1ccccc1OCCC`: the pKa in [1] worked out at 7.75. The figures for the IC50 against Cholinesterase and against Acetylcholinesterase [5] were 166 nM and 33.9 nM, respectively. The compound also came in with a pAI50 in the data set filed under Cavia porcellus of 6.19.

Take `CC[N+](C)(CCCCCC(=O)N(CCCCCCCCN(C(=O)CCCCC[N+](C)(CC)Cc1ccccc1OC)C(C)C)C(C)C)Cc1ccccc1OC` (configuration not stated): the figures for the IC50 on Cholinesterase and against Acetylcholinesterase [5] were 1660 nM and 8.13 nM, respectively.

As for `CNC(=O)Oc1ccc2c(c1)[C@]1(C)CCN(C)[C@@H]1N2C` [PHYSOSTIGMINE], the pAI50 in the data set listed under Cavia porcellus is recorded as 6.5.

Regarding `CC[N+](C)(CCCCCCOCCCCCCCCOCCCCCC[N+](C)(CC)Cc1ccccc1OC)Cc1ccccc1OC` (configuration not stated), the results for the IC50 on Cholinesterase and against Acetylcholinesterase [5] were 759 nM and 77.6 nM, respectively.

In the case of `CCN(CCCCCC(=O)N(C)CCCCCCCCN(C)C(=O)CCCCCN(CC)Cc1ccccc1C)Cc1ccccc1C`, the pKa in data set [1] stood at 7.46. The IC50 at Cholinesterase is 7410 nM; against Acetylcholinesterase [5], 56.2 nM. This compound also gave a pAI50 in the data set filed under Cavia porcellus of 6.35.

Regarding `CC[N+](C)(CCCCCC(=O)N(C)CCCCCCCCN(C)C(=O)CCCCC[N+](C)(CC)Cc1ccccc1OC)Cc1ccccc1OC` (configuration not stated), the IC50 on Acetylcholinesterase [2] is 11 nM; against Cholinesterase, 1410 nM; against Acetylcholinesterase [3], 11 nM; against Acetylcholinesterase [4], 12 nM; against Acetylcholinesterase [5], 12 nM. The pAI50 in the data set listed under Cavia porcellus came out at 7.21.

As to `CC[N+](C)(CCCCCC(=O)N(C)CCCCCCCCN(C)C(=O)CCCCC[N+](C)(CC)Cc1ccccc1)Cc1ccccc1` (configuration not stated), the IC50 was 2510 nM on Cholinesterase and 37.2 nM on Acetylcholinesterase [5].

Regarding `CCN(CCCCCC(=O)N(C)CCCCCCCCN(C)C(=O)CCCCCN(CC)Cc1ccccc1OC)Cc1ccccc1OC`, in data set [1], the pKa was 7.8. Further, the IC50 at Acetylcholinesterase [2] was 17.4 nM; against Cholinesterase, 2240 nM; against Acetylcholinesterase [3], 16.2 nM; at Acetylcholinesterase [4], 18.6 nM; against Acetylcholinesterase [5], 18.6 nM. Besides, the negative-log Kb (pKb) in data set [6] was 5.65. On Acetylcholinesterase [7], this compound showed a Ki of 12.2 nM. For the same compound, in the data set listed under Cavia porcellus, the pAI50 is recorded as 6.45.

Consider `CCN(CCCCCC(=O)N(CCCCCCCCN(C(=O)CCCCCN(CC)Cc1ccccc1OC)C(C)C)C(C)C)Cc1ccccc1OC`, for which the IC50 at Cholinesterase was 2140 nM; on Acetylcholinesterase [5], 18.2 nM.

As to `CCN(CCCCCC(=O)N(C)CCCCCCCCN(C)C(=O)CCCCCN(CC)Cc1ccccc1C(F)(F)F)Cc1ccccc1C(F)(F)F`, in [1], the pKa was 6.15. Besides, the pKb in [6] was less than 5. In addition, the IC50 was 166000 nM on Cholinesterase and 4570 nM on Acetylcholinesterase [5]. The compound also registered a pAI50 in the data set filed under Cavia porcellus of 6.84.

Regarding `CCN(CCCCCCOCCCCCCCCOCCCCCCN(CC)Cc1ccccc1OC)Cc1ccccc1OC`, the IC50 was 2630 nM on Cholinesterase and 204 nM at Acetylcholinesterase [5].

In the case of `CCN(CCCCCC(=O)N(C)CCCCCCCCN(C)C(=O)CCCCCN(CC)Cc1ccccc1Cl)Cc1ccccc1Cl`, the pKa in data set [1] came out at 6.92. The compound further yielded a pKb in data set [6] of 5.61. The values for the IC50 against Cholinesterase and at Acetylcholinesterase [5] were 4070 nM and 112 nM, respectively. This compound displayed a pAI50 in the data set filed under Cavia porcellus of 7.19.

As for `COc1ccccc1CN(CCCCCC(=O)N(C)CCCCCCCCN(C)C(=O)CCCCCN(Cc1ccccc1OC)C(C)C)C(C)C`, the IC50 was 871 nM against Cholinesterase and 72.4 nM against Acetylcholinesterase [5].

For `CC[N+](C)(CCCCCC(=O)N(C)CCCCCCCCN(C)C(=O)CCCCC[N+](C)(CC)Cc1ccccc1C(F)(F)F)Cc1ccccc1C(F)(F)F` (configuration not stated), the IC50 was 7590 nM against Cholinesterase and 11.7 nM against Acetylcholinesterase [5].

On to `COc1cccc(CN(C)CCCCCC(=O)N(C)CCCCCCCCN(C)C(=O)CCCCCN(C)Cc2cccc(OC)c2)c1`, for which the IC50 against Cholinesterase was 8320 nM; on Acetylcholinesterase [5], 676 nM.

For the compound `CC[N+](C)(CCCCCC(=O)N(C)CCCCCCCCN(C)C(=O)CCCCC[N+](C)(CC)Cc1ccccc1C)Cc1ccccc1C` (configuration not stated), the IC50 on Cholinesterase was 6460 nM; at Acetylcholinesterase [5] it was 16.6 nM.

In the case of `COc1ccc(CN(C)CCCCCC(=O)N(C)CCCCCCCCN(C)C(=O)CCCCCN(C)Cc2ccc(OC)cc2)cc1`, the IC50 against Cholinesterase was 5500 nM; against Acetylcholinesterase [5] it was 5750 nM.

The values above are taken from ChEMBL document CHEMBL1136713, “Structure-activity relationships of acetylcholinesterase noncovalent inhibitors based on a polyamine backbone. 2. Role of the substituents on the phenyl ring and nitrogen atoms of caproctamine” (J Med Chem, 2003).
